In patent US20110082080A1, “COMPOSITIONS AND METHODS OF USING THE HUMAN PROISLET PEPTIDE RECEPTOR” (CUREDM GROUP HOLDINGS, LLC, priority 2007, published 2011):
Where no end group is shown, it is not given here.

Assays:
NOD mice = assay: Pilot non obese diabetic (NOD) mouse study with lysophylline (LSF); type: in vivo; conditions: one NOD mouse per group; peptides given plus LSF; not statistically significant study; FIG. 11
Source text: The non obese diabetic (NOD) model is used as a model for type 1 autoimmune diabetes. This form of diabetes is the most challenging in that the underlying damage to the pancreas and its insulin production is due to autoimmune attack. Therefore, in order to show definitive islet neogenesis in this form of diabetes an immune tolerance agent must be used in combination with HIP. The NOD mouse model is extremely difficult model because many of the mice may only transiently become diabetic and go into remission, whereas others develop severe diabetes. The timing intervention in this transgenic mouse model is difficult to determine.
In a preliminary study that utilizing the immune tolerance agent, lysophylline (LSF) under development, three NOD mice that became diabetic and were randomized to placebo plus LSF, HIP2 plus LSF and HIP2B plus LSF.

[1] = system: streptozotcin-treated mice rendered diabetic; assay: Repeated study in streptozotocin-treated diabetic mice with HIP2 and Optimized HIP2B; type: in vivo, mouse; conditions: for Total Islet Mass (μm2) / Total Islets: Table 3; for Total Islet Mass (% increase) / Total Islets (% increase): Table 3, vs placebo
Source text: Differences between the two groups of HIP2B and placebo were statistically significant for both an increase in total islet mass (p=0.040) and total islet numbers (p=0.032), with the HIP2B group indicating larger values for both islet mass (M=416714.67, SD=121,389.01) and islet number (M=94, SD=32.74) than for the placebo group (islet mass: M=127410.67, SD=96930.78, islet number: M=31.67, SD=15.28).

PANC-1 cells = assay: Impact of HIP and Optimized HIP peptides on PANC-1 cell morphology; type: cell-based, human; conditions: treated four days; for cell morphology changes through 7 days: pictures days 1, 2, 3, 5, 7 at 200×, FIG. 9B
Protocol: The cells were treated with HIP and Optimized HIP peptides for four days. […] FIG. 9B show the progression of the cell morphology changes through 7 days, with the control on the top, HIP2 in the middle, and HIP2B on the bottom. Pictures were taken on days 1, 2, 3, 5, and 7 at 200× magnification.

[2] = system: mice rendered diabetic with streptozotocin; assay: Streptozocin diabetic mouse study of HIP3, HIP1, HIP2 and hamster INGAP; type: in vivo; conditions: for total islet numbers vs placebo (significance): FIG. 6, p=0.022; for total islet mass vs placebo (significance): FIG. 6, p=0.05; for Total Islet Mass (μm2) / Total Islets: Table 2, initial study; for Total Islets: histology of pancreata; for Total Islet Mass (% increase) / Total Islets (% increase): Table 2, vs placebo; for islet area: placebo 142,394, p=0.05, FIG. 6
Protocol: In Vivo Studies. HIP3, HIP1, HIP2 and hamster INGAP have been the subject of in vivo studies in mice. […] The subject number was selected to yield a sufficient number of diabetic animals for the study and animals were randomly assigned to study groups. All animals were dosed via intraperitoneal injections twice daily (am and pm) for 28 consecutive days. The timing of dose administration remained consistent (±2 hours) during the dosing phase.
Mice were injected intraperitoneally with streptozocin at 40 mg/kg in citrate buffer, pH 4.5, on 5 consecutive days in an attempt to render them diabetic. […] If the blood glucose level in any animal rose to above 400 mg/dL, the animal was treated with insulin. Every 3 days, at the same time each day, a nick was made on the tail and a drop of blood was collected. Glucose measurements were determined using a glucose meter. Group assignments and dose levels were as follows in Table 1:
Study endpoints included the following: changes in glucose; changes in insulin requirements; and histology of post-mortem pancreata.

EXTL3 = molecular target: T1, EXTL3 (Homo sapiens, UniProt O43909); assay: Western blot of EXTL3 in cytosolic and nuclear fractions of PANC-1 cells; type: cell-based; conditions: PANC-1 cells in SFM; FIG. 14; without HIP nuclear EXTL3 observed at 6 hours
T1 construct: It was observed that EXTL3 is expressed in PANC-1 cells; endogenous in cells; host or cells: PANC-1 (human pancreatic ductal/epithelioid cell line)
T1 sequence (O43909 1-919): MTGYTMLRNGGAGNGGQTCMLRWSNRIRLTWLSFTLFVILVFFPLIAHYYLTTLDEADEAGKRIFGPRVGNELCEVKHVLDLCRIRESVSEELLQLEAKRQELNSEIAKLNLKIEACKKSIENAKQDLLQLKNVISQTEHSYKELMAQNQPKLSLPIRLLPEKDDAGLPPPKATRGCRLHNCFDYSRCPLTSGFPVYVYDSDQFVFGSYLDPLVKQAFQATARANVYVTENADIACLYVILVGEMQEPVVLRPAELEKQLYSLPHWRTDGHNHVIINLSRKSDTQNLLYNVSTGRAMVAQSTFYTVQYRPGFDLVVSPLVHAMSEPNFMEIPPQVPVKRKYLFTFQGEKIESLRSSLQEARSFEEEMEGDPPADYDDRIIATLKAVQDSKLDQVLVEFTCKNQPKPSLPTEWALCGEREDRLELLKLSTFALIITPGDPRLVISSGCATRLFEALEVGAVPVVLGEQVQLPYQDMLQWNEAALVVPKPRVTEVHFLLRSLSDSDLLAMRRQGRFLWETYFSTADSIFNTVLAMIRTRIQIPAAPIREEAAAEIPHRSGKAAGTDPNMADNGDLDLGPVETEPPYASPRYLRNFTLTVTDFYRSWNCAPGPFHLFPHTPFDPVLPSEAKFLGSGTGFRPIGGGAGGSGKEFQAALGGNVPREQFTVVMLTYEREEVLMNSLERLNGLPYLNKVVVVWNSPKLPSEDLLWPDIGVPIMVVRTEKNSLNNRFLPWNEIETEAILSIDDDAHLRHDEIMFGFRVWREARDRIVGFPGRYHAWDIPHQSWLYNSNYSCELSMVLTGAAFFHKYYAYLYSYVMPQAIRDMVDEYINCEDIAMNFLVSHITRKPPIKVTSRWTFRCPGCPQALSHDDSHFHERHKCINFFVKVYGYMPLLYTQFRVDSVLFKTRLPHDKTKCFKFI
Protocol: Western blot and immunofluorescence analyses of EXTL3 localization were performed in human PANC-1 cells grown under conditions that differentiate these cells into islet-like cells. EXTL3 is predominantly located on the external surface of the cytoplasmic membrane and its structure includes a single transmembrane region located inside of the cytoplasmic membrane. PANC-1 cells were grown in a standard growth medium or in a serum free medium (SFM) containing HIP.

HIP receptor/EXTL3 = molecular target: T2, HIP receptor/EXTL3 (Homo sapiens, UniProt O43909); assay: Cy3 immunofluorescence of HIP receptor/EXTL3 translocation in PANC-1 cells; type: cell-based; conditions: for HIP receptor/EXTL3 trafficking from cytoplasmic membrane to nucleus: trypsin and serum free medium, FIG. 12
T2 construct: It was observed that EXTL3 is expressed in PANC-1 cells; endogenous in cells; host or cells: PANC-1 (human pancreatic ductal/epithelioid cell line)
T2 sequence (O43909 1-919): T1 sequence (O43909 1-919)
Protocol: Impact of HIP2B and HIP2 on HIP Receptor. To provide evidence that EXTL3 interacts with HIP, an experiment was conducted where human ductal cell line PANG-1 was used as a source of EXTL3. Using an antibody directed against EXTL3, PANC-1 cells were immunostained after being grown under conditions that differentiate these cells into islet-like cells. PANC-1 cells were grown in a standard growth medium containing 10% fetal bovine serum, or in a serum free medium (SFM) or SFM containing HIP.
The receptor for Human ProIslet Peptide was labeled using a double antibody method in a stable human pancreatic cell line. The first antibody was a rabbit polyclonal and the second was a goat-anti-rabbit labeled with Cy3 fluorescent dye.
These cells grow normally in serum free media and when treated with trypsin, are destabilized and made competent to undergo developmental changes. Cells were cultured in serum free media (SFM) with and without HIP, and in serum free media with trypsin (TSFM).
When treated with HIP under stable conditions, no changes result. When treated with HIP under developmentally competent conditions, the labeled receptor responds to the presence of HIP by being encapsulated by the cytoplasmic membrane and moving to the nuclear membrane where the signals for differentiation are received.
HIP stimulates the receptor membrane bound protein to be engulfed by the cytoplasmic membrane and transported to the nuclear membrane under adjusted exposure.

[3] = system: human pancreatic ductal tissue; assay: Insulin levels by radioimmunoassay in human pancreatic ductal fraction cultures; type: cell-based; conditions: human ductal tissue cultured with peptide; treated day 10 and 12, lysed after 1 week; vs negative control
Protocol: In Vitro Proof of Concept of HIP Activity. Human pancreatic islet and ductal fractions were cultured over 10 days and then treated in a blinded study. Radioimmunoassay methods were used to measure insulin levels in the human pancreatic cultures treated with a scrambled peptide serving as a negative control, HIP3, HIP1, HIP2 and hamster-derived INGAP serving as a positive control. Peptides were synthesized (95% pure, research grade).
Duplicate cultures were treated in both ductal and islet fractions of human pancreatic tissue on day 10 and day 12 and then lysed for detection of insulin content after 1 week of treatment HIP peptides, control and INGAP. During 10-day culture, the insulin production goes down and then after treatment with HIP peptides, insulin is produced again.
The ductal and islet tissue were separated using the Ricordi method. Neither ductal cell nor islet culture was completely homogeneous in nature. […] The studies were repeated with similar findings shown in the following chart, with as much as a four-fold increase in insulin levels by radioimmunoassay among human ductal tissue cultured with HIP2.
The ductal fraction graph as shown in FIG. 2 depicts the insulin levels on the y axis as measured by radioimmunoassay after incubation in culture with human pancreatic ductal tissue. […]

[4] = system: ductal fraction of human pancreatic cells; assay: HIP2B activity in human pancreatic ductal tissue culture (CK19, nuclei and insulin staining); type: cell-based; conditions: cultured 10 days in collagen matrix, treated every other day; FIG. 10
Protocol: The ductal fraction of human pancreatic cells were cultured for 10 days in a collagen matrix and then treated every other day with HIP2B. Cells were labeled by double antibody staining for CK 19, a marker for ductal tissue, and DAP1 staining to show nuclei and insulin.

[5] = 250 μg intraperitoneal twice daily, 28 days

Compound: C[C@@H](O)CCCCn1c(=O)c2c(ncn2C)n(C)c1=O [LSF, lysophylline, reference compound]
- glucose levels during the study (NOD mice): gradual elevations in glucose

Compound: IGLHDPTQGTEPNG [HIP2]
- Total Islet Mass (μm2) [1]: 202,955 μm2
- Total Islets [1]: 65
- Total Islet Mass (% increase) [1]: 143%
- Total Islets (% increase) [1]: 86%
- cell morphology changes through 7 days (PANC-1 cells): deviate significantly from their initial appearance
- lower mean glucose vs control [2, 5]: 29.4%
- day by which mice were completely insulin-free ([2]; 250 μg intraperitoneal twice daily, 28 days, FIG. 4): ≤ 21 days
- total islet numbers vs placebo (significance) [2]: significantly increased total islet numbers
- total islet mass vs placebo (significance) [2]: significantly greater total islet mass
- Total Islet Mass (μm2) [2]: 2161782 μm2
- Total Islets [2]: 454
- Total Islet Mass (% increase) [2]: 153%
- Total Islets (% increase) [2]: 62%
- islet area [2]: 360,297 μm(2)
- glucose levels during the study (NOD mice): steadily improved glucose levels
- EXTL3 translocation by Western blot (EXTL3): enhancing EXTL3 translocation from the cytoplasmic membrane to the nucleus
- HIP receptor/EXTL3 trafficking from cytoplasmic membrane to nucleus (HIP receptor/EXTL3): stimulated traffic from the HIP receptor on the cytoplasmic membrane into the nucleus
- increase in insulin levels by radioimmunoassay [3]: four-fold

Compound: IGLHDPTQGTEPNGE [HIP3]
- lower mean glucose vs control [2, 5]: 57.3%
- total islet numbers vs placebo (significance) [2]: significantly increased total islet numbers
- total islet mass vs placebo (significance) [2]: significantly greater total islet mass
- Total Islet Mass (μm2) [2]: 1703513 μm2
- Total Islets [2]: 410
- Total Islet Mass (% increase) [2]: 99%
- Total Islets (% increase) [2]: 46%
- islet area [2]: 283,918 μm(2)

Compound: WIGLHDPTQGTEPNG [HIP1]
- lower mean glucose vs control [2, 5]: 14.7%

Compound: Ac-Ile-Gly-Leu-His-Asp-Pro-Thr-Gln-Gly-Thr-Glu-Pro-Asn-Gly-NH2 (Ac-IGLHDPTQGTEPNG-NH2) [HIP2B]
- Total Islet Mass (μm2) [1]: 416,715 μm2
- Total Islets [1]: 94
- Total Islet Mass (% increase) [1]: 398%
- Total Islets (% increase) [1]: 168%
- rise in the total number of islets compared to placebo-treated mice ([1]; fold): three-fold
- islet number (M) ([1]; mean, SD=32.74, placebo M=31.67, p=0.032): 94
- islet mass (M) ([1]; mean, SD=121,389.01, placebo M=127410.67, p=0.040): 416714.67
- islet size vs placebo-treated mice ([1]; not statistically significant (t=0.708, p=0.518)): normally sized islets were generated
- morphological differences vs control on day 7 (PANC-1 cells; 200×, FIG. 9A): histologically more differentiated cells
- cell morphology changes through 7 days (PANC-1 cells): deviate significantly from their initial appearance
- glucose levels during the study (NOD mice): steadily improved glucose levels
- insulin expression after treatment [4]: induced insulin expression in otherwise insulin negative cells
- EXTL3 translocation by Western blot (EXTL3): enhancing EXTL3 translocation from the cytoplasmic membrane to the nucleus
- interaction with receptor/EXTL3 and trafficking to nucleus, compared with HIP2 (HIP receptor/EXTL3): as effective as HIP2
- HIP receptor/EXTL3 trafficking from cytoplasmic membrane to nucleus (HIP receptor/EXTL3): stimulated traffic from the HIP receptor on the cytoplasmic membrane into the nucleus
